Assay results: article PMC3351833 (Biochemical Journal, 2011)

Key:
CaM = details: read-out: Kd of CDZ as CaM inhibitor; cited from earlier work
Cx50 gap junctions = format: cell-based, mouse; details: 1 μM peptide in both whole-cell patch pipettes; 1 μM ionomycin + 1.8 mM [Ca2+]o; Cx50-N2a cell pairs

Row | Compound | Kd (CaM) | Share of the Ca2+/CaM-dependent decline in Cx50 Gj prevented (Cx50 gap junctions)
1 | Clc1ccc(C(c2ccc(Cl)cc2)n2cc[n+](CC(OCc3ccc(Cl)cc3Cl)c3ccc(Cl)cc3Cl)c2)cc1 (centres unmarked) [CDZ, calmidazolium] | ~1000 nM | 
2 | FKLYKCISFGGTEITTRSHVLTKKRL [SCx50p] |  | 20%
